Patent publication US10934283B2, “COMT inhibiting methods and compositions” (LIEBER INSTITUTE FOR BRAIN DEVELOPMENT, priority 2015, dated 2021)

The compounds below were run against T1, catechol-O-methyltransferase (COMT) (Homo sapiens, UniProt P21964) (assay: COMT inhibition assay (HTRF, production of SAH from SAM)). Conditions: table does not say MB-COMT or S-COMT.
T1 construct: M51A variant) was expressed in HEK 293F cells
T1 sequence (P21964 52-271 limits assumed): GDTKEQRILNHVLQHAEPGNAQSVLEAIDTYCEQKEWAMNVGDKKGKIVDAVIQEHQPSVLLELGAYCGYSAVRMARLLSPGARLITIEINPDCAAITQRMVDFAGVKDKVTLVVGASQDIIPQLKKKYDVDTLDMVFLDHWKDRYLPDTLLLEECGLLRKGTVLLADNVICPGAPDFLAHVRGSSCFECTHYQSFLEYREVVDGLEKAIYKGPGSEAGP
Format: biochemical
In short: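 Membranes from HEK293F cells expressing MB-COMT (M51A variant) incubated with 20 μM SAM and 1.5 μM dopamine plus compound (10 concentrations) for 40 min at 37 °C; S-COMT (Val158) at 0.15 ng/well used 100 μM dopamine, 15 min. SAH measured by HTRF against a standard curve; pIC50 from 4-parameter logistic fit.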
With `CC(=O)Nc1cccc(C(C)N2CCn3cc(O)c(=O)cc3C2)c1` (stereo not shown) [Example 96, N-{3-[1-(7-hydroxy-8-oxo-1,3,4,8-tetrahydro-2H-pyrido[1,2-a]pyrazin-2-yl)ethyl]phenyl}acetamide] the “Activity range (pIC50)” value was “++ (two plus signs (++) is associated with a pIC50 of from about 6 to 7)”.
In the case of `CC(c1cc(F)ccc1F)N1CCn2cc(O)c(=O)cc2C1` (stereo not shown) [Example 97, 2-[1-(2,5-difluorophenyl)ethyl]-7-hydroxy-1,2,3,4-tetrahydro-8H-pyrido[1,2-a]pyrazin-8-one], the “Activity range (pIC50)” value was “+++ (three plus signs (+++) is associated with a pIC50 of above about 7)”.
In the case of `CC(c1ccccc1F)N1CCn2cc(O)c(=O)cc2C1` (stereo not shown) [Example 98, 2-[1-(2-fluorophenyl)ethyl]-7-hydroxy-1,2,3,4-tetrahydro-8H-pyrido[1,2-a]pyrazin-8-one], the “Activity range (pIC50)” value was “++ (two plus signs (++) is associated with a pIC50 of from about 6 to 7)”.
`CC(c1ccc(F)cc1)N1CCn2cc(O)c(=O)cc2C1` (stereo not shown) [Example 99, 2-[1-(4-fluorophenyl)ethyl]-7-hydroxy-1,2,3,4-tetrahydro-8H-pyrido[1,2-a]pyrazin-8-one] was tested, and the “Activity range (pIC50)” value was “++ (two plus signs (++) is associated with a pIC50 of from about 6 to 7)”.
In the case of `O=c1cc2n(cc1O)CCN(C(CO)c1ccccc1)C2` (stereo not shown) [Example 100, 7-hydroxy-2-(2-hydroxy-1-phenylethyl)-1,2,3,4-tetrahydro-8H-pyrido[1,2-a]pyrazin-8-one], the “Activity range (pIC50)” value was “+ (a single plus (+) is associated with a pIC50 of from about 4.5 to 6)”.
`O=c1cc2n(cc1O)CCN(C(c1ccccc1)C(F)(F)F)C2` (stereo not shown) [Example 101, 7-hydroxy-2-(2,2,2-trifluoro-1-phenylethyl)-1,2,3,4-tetrahydro-8H-pyrido[1,2-a]pyrazin-8-one] was tested, and the “Activity range (pIC50)” value was “+++ (three plus signs (+++) is associated with a pIC50 of above about 7)”.
For `O=c1cc2n(cc1O)CCN(Cc1csc(-c3ccccc3)n1)C2` [Example 102, 7-hydroxy-2-[(2-phenyl-1,3-thiazol-4-yl)methyl]-1,2,3,4-tetrahydro-8H-pyrido[1,2-a]pyrazin-8-one], the “Activity range (pIC50)” value was “++ (two plus signs (++) is associated with a pIC50 of from about 6 to 7)”.
For `Cc1nn(-c2ccccc2)c(C)c1CN1CCn2cc(O)c(=O)cc2C1` [Example 103, 2-[(3,5-dimethyl-1-phenyl-1H-pyrazol-4-yl)methyl]-7-hydroxy-1,2,3,4-tetrahydro-8H-pyrido[1,2-a]pyrazin-8-one], the “Activity range (pIC50)” value was “++ (two plus signs (++) is associated with a pIC50 of from about 6 to 7)”.
For `O=c1cc2n(cc1O)CCN(C1(c3ccccc3)CC1)C2` [Example 104, 7-hydroxy-2-(1-phenylcyclopropyl)-3,4-dihydro-1H-pyrido[1,2-a]pyrazin-8-one], the “Activity range (pIC50)” value was “+++ (three plus signs (+++) is associated with a pIC50 of above about 7)”.
In the case of `O=c1cc2n(cc1O)CCN(C(CF)c1ccccc1)C2` (stereo not shown) [Example 105, 2-(2-fluoro-1-phenyl-ethyl)-7-hydroxy-3,4-dihydro-1H-pyrido[1,2-a]pyrazin-8-one], the “Activity range (pIC50)” value was “+++ (three plus signs (+++) is associated with a pIC50 of above about 7)”.
`O=c1cc2n(cc1O)CCN(C1(c3ccccc3Cl)CC1)C2` [Example 106, 2-[1-(2-chlorophenyl)cyclopropyl]-7-hydroxy-3,4-dihydro-1H-pyrido[1,2-a]pyrazin-8-one] was tested, and the “Activity range (pIC50)” value was “+++ (three plus signs (+++) is associated with a pIC50 of above about 7)”.
With `O=c1cc2n(cc1O)CCN(C(c1ccccc1)C(F)F)C2` (stereo not shown) [Example 107, 2-(2,2-difluoro-1-phenyl-ethyl)-7-hydroxy-3,4-dihydro-1H-pyrido[1,2-a]pyrazin-8-one] the “Activity range (pIC50)” value was “+++ (three plus signs (+++) is associated with a pIC50 of above about 7)”.
For `O=c1cc2n(cc1O)CCN(c1nc3ccccc3s1)C2` [Example 108, 2-(1,3-benzothiazol-2-yl)-7-hydroxy-3,4-dihydro-1H-pyrido[1,2-a]pyrazin-8-one], the “Activity range (pIC50)” value was “++ (two plus signs (++) is associated with a pIC50 of from about 6 to 7)”.
`O=c1cc2n(cc1O)CCN(C1CC1c1ccccc1)C2` (stereo not shown) [Example 109, 7-hydroxy-2-(2-phenylcyclopropyl)-3,4-dihydro-1H-pyrido[1,2-a]pyrazin-8-one] was tested, and the “Activity range (pIC50)” value was “++ (two plus signs (++) is associated with a pIC50 of from about 6 to 7)”.
For `O=c1cc2n(cc1O)CCN(c1cccc3ncccc13)C2` [Example 110, 7-hydroxy-2-(5-quinolyl)-3,4-dihydro-1H-pyrido[1,2-a]pyrazin-8-one], the “Activity range (pIC50)” value was “+ (a single plus (+) is associated with a pIC50 of from about 4.5 to 6)”.
In the case of `O=c1cc2n(cc1O)CCN(C1(c3ccccc3)COC1)C2` [Example 111, 7-hydroxy-2-(3-phenyloxetan-3-yl)-3,4-dihydro-1H-pyrido[1,2-a]pyrazin-8-one], the “Activity range (pIC50)” value was “++ (two plus signs (++) is associated with a pIC50 of from about 6 to 7)”.
For `O=c1cc2n(cc1O)CCN(c1ccccc1)C2` [Example 112, 7-hydroxy-2-phenyl-1,2,3,4-tetrahydro-8H-pyrido[1,2-a]pyrazin-8-one], the “Activity range (pIC50)” value was “+++ (three plus signs (+++) is associated with a pIC50 of above about 7)”.
With `Cc1cccc(N2CCn3cc(O)c(=O)cc3C2)c1` [Example 113, 7-hydroxy-2-(3-methylphenyl)-1,2,3,4-tetrahydro-8H-pyrido[1,2-a]pyrazin-8-one] the “Activity range (pIC50)” value was “++ (two plus signs (++) is associated with a pIC50 of from about 6 to 7)”.
With `O=c1cc2n(cc1O)CCN(c1ccccc1OC(F)(F)F)C2` [Example 114, 7-hydroxy-2-[2-(trifluoromethoxy)phenyl]-1,2,3,4-tetrahydro-8H-pyrido[1,2-a]pyrazin-8-one] the “Activity range (pIC50)” value was “++ (two plus signs (++) is associated with a pIC50 of from about 6 to 7)”.
With `O=c1cc2n(cc1O)CCN(Cc1ccccc1)C2Cc1ccccc1` (stereo not shown) [Example 115, 1,2-dibenzyl-7-hydroxy-1,2,3,4-tetrahydro-8H-pyrido[1,2-a]pyrazin-8-one] the “Activity range (pIC50)” value was “++ (two plus signs (++) is associated with a pIC50 of from about 6 to 7)”.
For `O=c1cc2n(cc1O)CCN(Cc1ccccc1)C2c1ccccc1` (stereo not shown) [Example 116, 2-benzyl-7-hydroxy-1-phenyl-1,2,3,4-tetrahydro-8H-pyrido[1,2-a]pyrazin-8-one], the “Activity range (pIC50)” value was “+++ (three plus signs (+++) is associated with a pIC50 of above about 7)”.
In the case of `O=c1cc2n(cc1O)CCN(Cc1c(Cl)cccc1Cl)C2c1ccccc1` (stereo not shown) [Example 117, 2-(2,6-dichlorobenzyl)-7-hydroxy-1-phenyl-1,2,3,4-tetrahydro-8H-pyrido[1,2-a]pyrazin-8-one], the “Activity range (pIC50)” value was “+++ (three plus signs (+++) is associated with a pIC50 of above about 7)”.
In the case of `CCc1ccc(CN2CCn3cc(O)c(=O)cc3C2C(C)C)cc1` (stereo not shown) [Example 120, 2-(4-ethylbenzyl)-7-hydroxy-1-(propan-2-yl)-1,2,3,4-tetrahydro-8H-pyrido[1,2-a]pyrazin-8-one], the “Activity range (pIC50)” value was “+++ (three plus signs (+++) is associated with a pIC50 of above about 7)”.
For `Cc1cccc(C)c1CN1CCn2cc(O)c(=O)cc2C1C` (stereo not shown) [Example 121, 2-(2,6-dimethylbenzyl)-7-hydroxy-1-methyl-1,2,3,4-tetrahydro-8H-pyrido[1,2-a]pyrazin-8-one], the “Activity range (pIC50)” value was “+++ (three plus signs (+++) is associated with a pIC50 of above about 7)”.
With `CCc1ccc(CN2CCn3cc(O)c(=O)cc3C2C)cc1` (stereo not shown) [Example 122, 2-(4-ethylbenzyl)-7-hydroxy-1-methyl-1,2,3,4-tetrahydro-8H-pyrido[1,2-a]pyrazin-8-one] the “Activity range (pIC50)” value was “+++ (three plus signs (+++) is associated with a pIC50 of above about 7)”.
In the case of `O=c1cc2n(cc1O)CCN(Cc1cccc3cccnc13)C2c1ccc(F)cc1` (stereo not shown) [Example 123, 1-(4-fluorophenyl)-7-hydroxy-2-(quinolin-8-ylmethyl)-1,2,3,4-tetrahydro-8H-pyrido[1,2-a]pyrazin-8-one], the “Activity range (pIC50)” value was “+++ (three plus signs (+++) is associated with a pIC50 of above about 7)”.
`Cc1cccc(C)c1CN1CCn2cc(O)c(=O)cc2C1c1ccc(F)cc1` (stereo not shown) [Example 124, 2-(2,6-dimethylbenzyl)-1-(4-fluorophenyl)-7-hydroxy-1,2,3,4-tetrahydro-8H-pyrido[1,2-a]pyrazin-8-one] was tested, and the “Activity range (pIC50)” value was “+++ (three plus signs (+++) is associated with a pIC50 of above about 7)”.
In the case of `CCc1ccc(CN2CCn3cc(O)c(=O)cc3C2C2CCOCC2)cc1` (stereo not shown) [Example 125, 2-(4-ethylbenzyl)-7-hydroxy-1-(tetrahydro-2H-pyran-4-yl)-1,2,3,4-tetrahydro-8H-pyrido[1,2-a]pyrazin-8-one], the “Activity range (pIC50)” value was “+++ (three plus signs (+++) is associated with a pIC50 of above about 7)”.
In the case of `CCc1ccc(CN2CCn3cc(O)c(=O)cc3C2c2cccc(-c3cccnc3)c2)cc1` (stereo not shown) [Example 126, 2-(4-ethylbenzyl)-7-hydroxy-1-[3-(pyridin-3-yl)phenyl]-1,2,3,4-tetrahydro-8H-pyrido[1,2-a]pyrazin-8-one], the “Activity range (pIC50)” value was “+++ (three plus signs (+++) is associated with a pIC50 of above about 7)”.
In the case of `O=c1cc2n(cc1O)CC(c1ccccc1)N(Cc1ccccc1)C2` (stereo not shown) [Example 127, 2-benzyl-7-hydroxy-3-phenyl-1,2,3,4-tetrahydro-8H-pyrido[1,2-a]pyrazin-8-one], the “Activity range (pIC50)” value was “+++ (three plus signs (+++) is associated with a pIC50 of above about 7)”.
With `O=c1cc2n(cc1O)CC(Cc1ccccc1)N(Cc1ccccc1)C2` (stereo not shown) [Example 128, 2,3-dibenzyl-7-hydroxy-1,2,3,4-tetrahydro-8H-pyrido[1,2-a]pyrazin-8-one] the “Activity range (pIC50)” value was “++ (two plus signs (++) is associated with a pIC50 of from about 6 to 7)”.
